The target in test [1] is T1, Falcipain-2 protease (FP-2) (Plasmodium falciparum, UniProt Q8I6U4).
T1 construct: The falcipain-2 fragment was amplified by the polymerase chain reaction (PCR); His6 (N-terminal MRGS-His6 supplied by the pQE-30 vector; own knowledge of the vector, consistent with the Ni2+-NTA purification) (N); made in house; host or cells: E. coli M15
T1 sequence (Q8I6U4 244-484): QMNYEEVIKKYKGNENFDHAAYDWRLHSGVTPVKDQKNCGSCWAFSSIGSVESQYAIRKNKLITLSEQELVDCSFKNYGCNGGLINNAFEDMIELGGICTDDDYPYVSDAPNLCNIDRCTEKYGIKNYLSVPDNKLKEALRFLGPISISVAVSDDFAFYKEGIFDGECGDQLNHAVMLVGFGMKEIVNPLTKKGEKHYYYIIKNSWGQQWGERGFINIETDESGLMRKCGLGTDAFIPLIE
The test can be described thus: Falcipain-2 protease inhibition assay (fluorescence reaction rate). The class given is biochemical. How it is done: (1) Expression and Purification of Falcipain-2 and Refolding of FP-2 Inclusion Bodies Protein
(2) The Determination of the Invention Compounds' Inhibitory Activity Against FP-2
FP-2 protein and test compounds dissolved in DMSO (prepared from EXAMPLES 1-4) were added to 197 μL, buffer, containing 100 mM NaOAc, 10 mM DTT, pH 5.5 (final concentration 10 μg/mL). The test compound were Stenopalustroside A, Stenopalustroside D, Tiliroside, kaempferol 3-O-β-(6″-caffeoylglucoside) and kaempferol 3-(2,4-di-E-p-coumaroyl-rhamnoside), respectively, which final concentration were 10 μM and 0 μM (as negative control). These compounds were incubated for […] and employed MD SpectraMax M5 Microplate Reader to continuous detect the RFU for 15 min, at excitation 355 nm and emission 460 nm Calculate the reaction rate Km, and obtain percentage inhibitory rate of the test compound at 10 μM by the following equation,
The equation is: (Kmof control group−Kmof experimental group)/Kmof control group×100%
Select […] compounds with over 50% inhibitory rate to detect IC50, and utilize the compound solutions prepared from EXAMPLE 1 to EXAMPLE 4, Stenopalustroside A, tiliroside kaempferol 3-O-β-(6″-caffeoylglucoside), and the experimental methods and system followed as EXAMPLE 6. According to FP-2 activity reaction rate Km with compounds at different concentrations, we can calculate the inhibitory rate of compounds against FP-2 at different concentration. The IC50 value was fitted with utilizing the Sigmoidal Equation by Origin software.

The subject of test [2] is chloroquine-resistant (W2) strain of P. falciparum. The test can be described thus: In vitro anti-malarial activity assay (plasmodial LDH activity), W2 clone. As to conditions: Plasmodium falciparum, W2; 72 h incubation, LDH readout; read-out: P. falciparum (W2 Clone) IC50. In kind it is cell-based. How it is done: In vitro anti-malarial activity of the representative compounds was determined against chloroquine sensitive (D6) and chloroquine-resistant (W2) strains of P. falciparum.
The anti-malarial activity was determined by measuring plasmodial LDH activity as described earlier (Jain, M.; Khan, S. I.; Tekwani, B. L.; Jacob, M. R.; Singh, S.; Singh, P. P.; Jain, R. Synthesis, anti-malarial, antileishmanial, and antimicrobial activities of some 8-quinolinamine analogues. Bioorg. Med. Chem. 2005, 13, 4458-4466). A suspension of red blood cells infected with D6 or W2 strains of P. falciparum (200 with 2% parasitemia and 2% hematocrit in RPMI 1640 medium supplemented with 10% human serum and 60 µg/mL Amikacin) was added to the wells of a 96-well plate containing 10 μL of serially diluted test samples. The plate was flushed with a gas mixture of 90% N2, 5% O2, and 5% CO2 and incubated at 37° C. for 72 h in a modular incubation chamber (Billups-Rothenberg, Calif.). Parasitic LDH activity was determined by using Malstat™ reagent (Flow Inc., Portland, Oreg.) according to the procedure of Makler and Hinrichs (M. T. Makler and D. J. Hinrichs, Measurement of the lactate dehydrogenase activity of Plasmodium falciparum as an assessment of parasitemia. J. Am. J. Trop. Med. Hyg. 1993, 48(2):205-210). Briefly, 20 μl, of the incubation mixture was mixed with 100 μL of the Malstat™ reagent and incubated at room temperature for 30 min Twenty microliters of a 1:1 mixture of NBT/PES (Sigma, St. Louis, Mo.) was then added and the plate was further incubated in the dark for 1 h. The reaction was then stopped by the addition of 100 μL of a 5% acetic acid solution. The plate was read at 650 nm. Artemisinin and chloroquine were included in each assay as the drug controls. IC50 values were computed from the dose-response curves. To determine the selectivity index of anti-malarial activity of compounds, their cytotoxicity in vitro to mammalian cells was also determined. The assay was performed in 96-well tissue culture-treated plates as described earlier (J. Mustafa, S. I. Khan, G. Ma, L. A. Walker and I. A. Khan, Synthesis and Anticancer Activities of Fatty Acid Analogs of Podophyllotoxin. Lipids. 2004, 39(2):167-172). Vero cells (monkey kidney fibroblasts) were seeded to the wells of 96-well plate at a density of 25,000 cells/well and incubated for 24 h. Samples at different concentrations were added and plates were again incubated for 48 h. The number of viable cells was determined by Neutral Red assay. IC50 values were obtained from dose-response curves. Doxorubicin was used as a positive control.

Consider `O=C(/C=C/c1ccc(O)cc1)OC[C@H]1O[C@@H](Oc2c(-c3ccc(O)cc3)oc3cc(O)cc(O)c3c2=O)[C@H](O)[C@@H](O)[C@@H]1O` [Tiliroside], for which the 50% inhibitory concentration (IC50) is 13.1 µM in test [1] and 106 µM in test [2]. Besides, in test [1] (10 μM compound, pH 5.5), testing at 10 µM gave an inhibition of 64.4%.

(Values after patent US8846627B2, “Method for treatment of malaria” (The Second Military Medical University, priority 2009, dated 2014).)
